Results reported in paper PMC11494662, “Insight into the Course of the Ferrier Rearrangement Used to Obtain Untypical Diosgenyl Saponins” (The Journal of Organic Chemistry, 2024).
Values after ≈ are worked out from the molar mass of the structure shown.

How the values were obtained:
S. aureus ATCC 43300 = experiment: MIC, broth dilution method; assay type: cell-based; conditions: Staphylococcus aureus, ATCC43300; MHB II, 18 h, 37 °C; read-out: Minimum inhibitory concentration S. aureus ATCC 43300
Method: (§1) MIC was determined with the dilution method in Mueller–Hinton II broth (MHB II) on 96-well polystyrene plates. The reference strains (Polish Academy of Sciences, Wroclaw, Poland) of Gram-positive bacteria (Enterococcus faecium ATCC 29,212, S. aureus ATCC 6538, S. aureus ATCC 43,300, S. aureus ATCC 12,598, S. aureus ATCC 25,923, S. aureus, ATCC 33,591, Staphylococcus epidermidis ATCC 14,990) and Gram-negative bacteria (Acinetobacter baumanii ATCC 23,506, Escherichia coli ATCC 25,922, Klebsiella pneumoniae ATCC 700,603, Pseudomonas aeruginosa ATCC 9027) were suspended in MHB II medium to initial inoculum of 10^5 cfu/mL. The microbes were exposed to graded concentrations of tested compounds (range 0.5–256 mg/L) for 18 h at 37 °C under aerobic conditions. The compounds were dissolved in DMSO and then diluted with PBS. […] MIC was taken as the lowest concentration at which no microbial growth was observed. The experiments were performed in triplicate.

S. aureus ATCC 25923 = experiment: MIC, broth dilution method; assay type: cell-based; conditions: Staphylococcus aureus, ATCC25923; MHB II, 18 h, 37 °C; read-out: Minimum inhibitory concentration S. aureus ATCC 25923
Method: as §1

S. aureus ATCC 6538 = experiment: MIC, broth dilution method; assay type: cell-based; conditions: Staphylococcus aureus, ATCC6538; MHB II, 18 h, 37 °C; read-out: Minimum inhibitory concentration S. aureus ATCC 6538
Method: as §1

[1] = tested on: S. epidermidis ATCC 14990; experiment: MIC, broth dilution method; assay type: cell-based; conditions: Staphylococcus epidermidis, ATCC14990; MHB II, 18 h, 37 °C; read-out: Minimum inhibitory concentration S. epidermidis ATCC 14990
Method: as §1

S. aureus ATCC 33591 = experiment: MIC, broth dilution method; assay type: cell-based; conditions: Staphylococcus aureus, ATCC33591; MHB II, 18 h, 37 °C; read-out: Minimum inhibitory concentration S. aureus ATCC 33591
Method: as §1

S. aureus ATCC 12598 = experiment: MIC, broth dilution method; assay type: cell-based; conditions: Staphylococcus aureus, ATCC12598; MHB II, 18 h, 37 °C; read-out: Minimum inhibitory concentration S. aureus ATCC 12598
Method: as §1

E. faecium ATCC 29212 = experiment: MIC, broth dilution method; assay type: cell-based; conditions: Enterococcus faecium, ATCC29212; MHB II, 18 h, 37 °C; read-out: Minimum inhibitory concentration E. faecium ATCC 29212
Method: as §1

[2] = tested on: human keratinocytes (HaCaT line); experiment: MTT cytotoxicity assay, HaCaT; assay type: cell-based; conditions: Homo sapiens, HaCaT normal cells, 48 h treatment
Method: (§2) The MTT assay was performed to specify the cytotoxicity of 7–12 and 13–18 against prostate cancer cells (PC3 line), breast cancer cells (MCF7 line), and human keratinocytes (HaCaT line). The mentioned cell lines were assayed by exposing them for 48 h to a medium containing the studied compounds over a wide range of concentrations. The IC50 values (dose of the compound which caused a 50% reduction of cell viability) and the selectivity indexes (SI), which show the ratio of IC50 for normal cell line to IC50 for cancer cell line, are shown in Table S2. An MTT assay was performed to specify the cytotoxicity of the studied compounds against breast cancer cells (MCF-7 line, ATCC), prostate cancer cells (PC3 line, ATCC) and human keratinocytes (HaCaT line, CLS). The MCF-7 cell line was cultured in an RPMI 1640 medium (Gibco, Thermo Fisher Scientific), the PC3 cell line in a F-12K medium (Gibco, Thermo Fisher Scientific), and the HaCaT cell line in a high-glucose DMEM (Gibco, Thermo Fisher Scientific). Each medium was supplemented with 10% fetal bovine serum (Gibco, Thermo Fisher Scientific) and antibiotics (penicillin and streptomycin, Gibco, Thermo Fisher Scientific). Cells were seeded at a density of 4000 per well into 96-well plates and incubated at 37 °C in a 5% CO2 atmosphere. The cells were treated with studied compounds in a concentration range of 0.1–100 μg/mL or with a vehicle (1% DMSO) as a control and subsequently incubated for 48 h. Thereafter, the MTT salt solution (3-(4,5-dimethylthiazol-2-yl)-2,5-diphenyltetrazolium bromide, VWR) was added at a concentration of 4 mg/mL (25 μL per well), and the obtained product (formazan) after 3 h of incubation was dissolved in DMSO. An EnSpire microplate reader (PerkinElmer) was used to measure absorbance at 570 nm (the reference wavelength was 660 nm). The viability of the control cells was taken as 100%. Three independent experiments were conducted in triplicate. Statistical analysis of the results and estimation of IC50 values were performed using GraphPad Prism 7 software.

[3] = tested on: prostate cancer cells (PC3 line); experiment: MTT cytotoxicity assay, PC3; assay type: cell-based, human; conditions: for IC50: Homo sapiens, PC-3, PC3 cells, 48 h treatment, MTT; for SI PC3 (selectivity index): ratio of IC50 for normal cell line (HaCaT) to IC50 for PC3, 48 h
Method: as §2

[4] = tested on: Staphylococcus aureus strains tested, including methicilin-resistant S. aureus; experiment: Antistaphylococcal activity, summary over the strains tested; assay type: cell-based; conditions: range over the S. aureus strains tested
Method: as §1

[5] = tested on: breast cancer cells (MCF-7 line); experiment: MTT cytotoxicity assay, MCF7; assay type: cell-based, human; conditions: for IC50: Homo sapiens, MCF7 cells, 48 h treatment, MTT; for SI MCF7 (selectivity index): ratio of IC50 for normal cell line (HaCaT) to IC50 for MCF7, 48 h
Method: as §2

C[C@@H]1CC[C@@]2(OC1)O[C@H]1C[C@H]3[C@@H]4CC=C5C[C@@H](O[C@@H]6CC[C@@H](O)[C@@H](CO)O6)CC[C@]5(C)[C@H]4CC[C@]3(C)[C@H]1[C@@H]2C [14α, Diosgenyl 2,3-Dideoxy-α-D-threo-hexopyranoside]
MIC (S. aureus ATCC 43300): 128 µg/mL (≈ 235 µM)
MIC (S. aureus ATCC 25923): 64 µg/mL (≈ 117 µM)
MIC (S. aureus ATCC 6538): 64 µg/mL (≈ 117 µM)
MIC [1]: > 256 µg/mL
MIC (S. aureus ATCC 33591): 256 µg/mL (≈ 470 µM)
MIC (S. aureus ATCC 12598): 256 µg/mL (≈ 470 µM)
MIC (E. faecium ATCC 29212): > 256 µg/mL
IC50 [2]: 53.2 µM
IC50 [3]: 41.1 µM
SI PC3 (selectivity index) [3]: 1.29
concentrations at which antistaphylococcal activity was achieved [4]: 64 to 256 mg/L
IC50 [5]: 25 µM
SI MCF7 (selectivity index) [5]: 2.13

C[C@@H]1CC[C@@]2(OC1)O[C@H]1C[C@H]3[C@@H]4CC=C5C[C@@H](O[C@@H]6CC[C@H](O)CO6)CC[C@]5(C)[C@H]4CC[C@]3(C)[C@H]1[C@@H]2C [17α]
MIC (S. aureus ATCC 43300): 128 µg/mL (≈ 249 µM)
MIC (S. aureus ATCC 25923): 256 µg/mL (≈ 497 µM)
MIC (S. aureus ATCC 6538): 128 µg/mL (≈ 249 µM)
MIC [1]: > 256 µg/mL
MIC (S. aureus ATCC 33591): 256 µg/mL (≈ 497 µM)
MIC (S. aureus ATCC 12598): 256 µg/mL (≈ 497 µM)
MIC (E. faecium ATCC 29212): > 256 µg/mL
IC50 [2]: 48.3 µM
IC50 [3]: 73.2 µM
SI PC3 (selectivity index) [3]: 0.66
concentrations at which antistaphylococcal activity was achieved [4]: 128 to 256 mg/L
IC50 [5]: 68.2 µM
SI MCF7 (selectivity index) [5]: 0.71

C[C@@H]1CC[C@@]2(OC1)O[C@H]1C[C@H]3[C@@H]4CC=C5C[C@@H](O[C@@H]6CC[C@@H](O)CO6)CC[C@]5(C)[C@H]4CC[C@]3(C)[C@H]1[C@@H]2C [18β]
MIC (S. aureus ATCC 43300): > 256 µg/mL
MIC (S. aureus ATCC 25923): > 256 µg/mL
MIC (S. aureus ATCC 6538): > 256 µg/mL
MIC [1]: > 256 µg/mL
MIC (S. aureus ATCC 33591): > 256 µg/mL
MIC (S. aureus ATCC 12598): > 256 µg/mL
MIC (E. faecium ATCC 29212): > 256 µg/mL
IC50 [2]: 59.9 µM
IC50 [3]: 28.9 µM
SI PC3 (selectivity index) [3]: ca. 2
SI PC3 (selectivity index) ([3]; listed as 18): 2.07
IC50 [5]: 26.9 µM
SI MCF7 (selectivity index) [5]: ca. 2
SI MCF7 (selectivity index) ([5]; listed as 18): 2.23
